The test deals with GST-Bc1-2 (Homo sapiens, UniProt P10415). Description: Time Resolved-Fluorescence Resonance Energy Transfer (TR-FRET) Bcl-2 binding assay with F-Bak peptide probe. To be noted: GST-Bcl-2 1 nM, F-Bak probe 100 nM, Tb-anti-GST 1 nM; '<' = below limit of detection; read-out: TR-FRET Bcl-2 Binding Ki. Background: In TR-FRET formats the signal depends on donor and acceptor labels being close together.

A value given as a limit tells only on which side of the number the result lay.

GST-Bc1-2, sequence (P10415 whole entry): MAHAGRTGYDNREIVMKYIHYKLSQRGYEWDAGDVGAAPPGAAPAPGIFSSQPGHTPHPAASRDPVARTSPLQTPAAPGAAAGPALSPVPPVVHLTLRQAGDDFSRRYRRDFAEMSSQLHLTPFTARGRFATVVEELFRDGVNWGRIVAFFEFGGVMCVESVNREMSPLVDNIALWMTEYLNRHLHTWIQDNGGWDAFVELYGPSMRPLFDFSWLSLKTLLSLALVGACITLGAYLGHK

Consider `CC1(C)CCC(CN2CCN(c3ccc(C(=O)NS(=O)(=O)c4ccc(NC5CCN(C(CF)CF)CC5)c([N+](=O)[O-])c4)c(Oc4cnc5[nH]ccc5c4)c3)CC2)=C(c2ccc(Cl)cc2)C1` [Example 95, 4-(4-{[2-(4-chlorophenyl)-4,4-dimethylcyclohex-1-en-1-yl]methyl}piperazin-1-yl)-N-{[4-({1-[2-fluoro-1-(fluoromethyl)ethyl]piperidin-4-yl}amino)-3-nitrophenyl]sulfonyl}-2-(1H-pyrrolo[2,3-b]pyridin-5-yloxy)benzamide], for which the Ki (commonly a measure of affinity in units of concentration, obtained from inhibition or displacement) amounted to 0.014 nM.

Turning to `CC1(C)CCC(CN2CCN(c3ccc(C(=O)NS(=O)(=O)c4cnc(OCC5(F)CCOCC5)c(Cl)c4)c(Oc4cnc5[nH]ccc5c4)c3)CC2)=C(c2ccc(Cl)cc2)C1` [Example 96, N-({5-chloro-6-[(4-fluorotetrahydro-2H-pyran-4-yl)methoxy]pyridin-3-yl}sulfonyl)-4-(4-{[2-(4-chlorophenyl)-4,4-dimethylcyclohex-1-en-1-yl]methyl}piperazin-1-yl)-2-(1H-pyrrolo[2,3-b]pyridin-5-yloxy)benzamide], the Ki amounted to 0.014 nM.

On to `CC1(C)CCC(CN2CCN(c3ccc(C(=O)NS(=O)(=O)c4ccc(NC5CCN(CC(F)F)CC5)c([N+](=O)[O-])c4)c(Oc4cnc5[nH]ccc5c4)c3)CC2)=C(c2ccc(Cl)cc2)C1` [Example 97, 4-(4-{[2-(4-chlorophenyl)-4,4-dimethylcyclohex-1-en-1-yl]methyl}piperazin-1-yl)-N-[(4-{[1-(2,2-difluoroethyl)piperidin-4-yl]amino}-3-nitrophenyl)sulfonyl]-2-(1H-pyrrolo[2,3-b]pyridin-5-yloxy)benzamide], for which the Ki came to 0.017 nM.

Take `CC1(C)CCC(CN2CCN(c3ccc(C(=O)NS(=O)(=O)c4ccc(NC5CCN(C6CC6)CC5)c([N+](=O)[O-])c4)c(Oc4cnc5[nH]ccc5c4)c3)CC2)=C(c2ccc(Cl)cc2)C1` [Example 98, 4-(4-{[2-(4-chlorophenyl)-4,4-dimethylcyclohex-1-en-1-yl]methyl}piperazin-1-yl)-N-({4-[(1-cyclopropylpiperidin-4-yl)amino]-3-nitrophenyl}sulfonyl)-2-(1H-pyrrolo[2,3-b]pyridin-5-yloxy)benzamide]: the Ki was less than 0.01 nM.

Regarding `CC1(C)CCC(CN2CCN(c3ccc(C(=O)NS(=O)(=O)c4ccc(NCC5(N6CCOCC6)CCCCC5)c([N+](=O)[O-])c4)c(Oc4cnc5[nH]ccc5c4)c3)CC2)=C(c2ccc(Cl)cc2)C1` [Example 99, 4-(4-{[2-(4-chlorophenyl)-4,4-dimethylcyclohex-1-en-1-yl]methyl}piperazin-1-yl)-N-[(4-{[(1-morpholin-4-ylcyclohexyl)methyl]amino}-3-nitrophenyl)sulfonyl]-2-(1H-pyrrolo[2,3-b]pyridin-5-yloxy)benzamide], the inhibitory constant (Ki) came to 0.233 nM.

Turning to `CC1(C)CCC(CN2CCN(c3ccc(C(=O)NS(=O)(=O)c4ccc(N[C@H]5CC[C@H](N(C6CC6)C6CC6)CC5)c([N+](=O)[O-])c4)c(Oc4cnc5[nH]ccc5c4)c3)CC2)=C(c2ccc(Cl)cc2)C1` [Example 100, Trans-4-(4-{[2-(4-chlorophenyl)-4,4-dimethylcyclohex-1-en-1-yl]methyl}piperazin-1-yl)-N-[(4-{[4-(dicyclopropylamino)cyclohexyl]amino}-3-nitrophenyl)sulfonyl]-2-(1H-pyrrolo[2,3-b]pyridin-5-yloxy)benzamide], the Ki is less than 0.01 nM.

With `CCN1CCOCC1COc1ncc(S(=O)(=O)NC(=O)c2ccc(N3CCN(CC4=C(c5ccc(Cl)cc5)CC(C)(C)CC4)CC3)cc2Oc2cnc3[nH]ccc3c2)cc1Br` (stereo not drawn) [Example 102, N-({5-bromo-6-[(4-ethylmorpholin-3-yl)methoxy]pyridin-3-yl}sulfonyl)-4-(4-{[2-(4-chlorophenyl)-4,4-dimethylcyclohex-1-en-1-yl]methyl}piperazin-1-yl)-2-(1H-pyrrolo[2,3-b]pyridin-5-yloxy)benzamide], the Ki is 0.094 nM.

Turning to `CCN1CCOCC1COc1ccc(S(=O)(=O)NC(=O)c2ccc(N3CCN(CC4=C(c5ccc(Cl)cc5)CC(C)(C)CC4)CC3)cc2Oc2cnc3[nH]ccc3c2)cc1[N+](=O)[O-]` (stereo not drawn) [Example 103, 4-(4-{[2-(4-chlorophenyl)-4,4-dimethylcyclohex-1-en-1-yl]methyl}piperazin-1-yl)-N-({4-[(4-ethylmorpholin-3-yl)methoxy]-3-nitrophenyl}sulfonyl)-2-(1H-pyrrolo[2,3-b]pyridin-5-yloxy)benzamide], the Ki was less than 0.01 nM.

Turning to `CC1(C)CCC(CN2CCN(c3ccc(C(=O)NS(=O)(=O)c4ccc(N[C@H]5CCCN(C6CCOCC6)C5)c([N+](=O)[O-])c4)c(Oc4cnc5[nH]ccc5c4)c3)CC2)=C(c2ccc(Cl)cc2)C1` [Example 105, 4-(4-{[2-(4-chlorophenyl)-4,4-dimethylcyclohex-1-en-1-yl]methyl}piperazin-1-yl)-N-[(3-nitro-4-{[(3S)-1-tetrahydro-2H-pyran-4-ylpiperidin-3-yl]amino}phenyl)sulfonyl]-2-(1H-pyrrolo[2,3-b]pyridin-5-yloxy)benzamide], the Ki is less than 0.01 nM.

On to `CC1(C)CCC(CN2CCN(c3ccc(C(=O)NS(=O)(=O)c4cnc(NCC5CCOCC5)c(C#N)c4)c(Oc4cnc5[nH]ccc5c4)c3)CC2)=C(c2ccc(Cl)cc2)C1` [Example 106, 4-(4-{[2-(4-chlorophenyl)-4,4-dimethylcyclohex-1-en-1-yl]methyl}piperazin-1-yl)-N-({5-cyano-6-[(tetrahydro-2H-pyran-4-ylmethyl)amino]pyridin-3-yl}sulfonyl)-2-(1H-pyrrolo[2,3-b]pyridin-5-yloxy)benzamide], for which the Ki worked out at 0.895 nM.

For `CC1(C)CCC(CN2CCN(c3ccc(C(=O)NS(=O)(=O)c4ccc(NCC5(N)CCOCC5)c([N+](=O)[O-])c4)c(Oc4cnc5[nH]ccc5c4)c3)CC2)=C(c2ccc(Cl)cc2)C1` [Example 108, N-[(4-{[(4-aminotetrahydro-2H-pyran-4-yl)methyl]amino}-3-nitrophenyl)sulfonyl]-4-(4-{[2-(4-chlorophenyl)-4,4-dimethylcyclohex-1-en-1-yl]methyl}piperazin-1-yl)-2-(1H-pyrrolo[2,3-b]pyridin-5-yloxy)benzamide], the Ki is less than 0.01 nM.

As to `CC1(C)CCC(CN2CCN(c3ccc(C(=O)NS(=O)(=O)c4cnc(N[C@H]5CC[C@H](N6CCOCC6)CC5)c(C#N)c4)c(Oc4cnc5[nH]ccc5c4)c3)CC2)=C(c2ccc(Cl)cc2)C1` [Example 109, Trans-4-(4-{[2-(4-chlorophenyl)-4,4-dimethylcyclohex-1-en-1-yl]methyl}piperazin-1-yl)-N-({5-cyano-6-[(4-morpholin-4-ylcyclohexyl)amino]pyridin-3-yl}sulfonyl)-2-(1H-pyrrolo[2,3-b]pyridin-5-yloxy)benzamide], the Ki turned out to be 0.127 nM.

As to `CC1(C)CCC(CN2CCN(c3ccc(C(=O)NS(=O)(=O)c4ccc(NCC5CCOCC5)c(C#N)c4)c(Oc4cnc5[nH]ccc5c4)c3)CC2)=C(c2ccc(Cl)cc2)C1` [Example 110, 4-(4-{[2-(4-chlorophenyl)-4,4-dimethylcyclohex-1-en-1-yl]methyl}piperazin-1-yl)-N-({3-cyano-4-[(tetrahydro-2H-pyran-4-ylmethyl)amino]phenyl}sulfonyl)-2-(1H-pyrrolo[2,3-b]pyridin-5-yloxy)benzamide], the Ki turned out to be 0.557 nM.

Consider `CC1(C)CCC(CN2CCN(c3ccc(C(=O)NS(=O)(=O)c4ccc(N[C@H]5CC[C@@H](N6CCOCC6)C5)c([N+](=O)[O-])c4)c(Oc4cnc5[nH]ccc5c4)c3)CC2)=C(c2ccc(Cl)cc2)C1` [Example 111, 4-(4-{[2-(4-chlorophenyl)-4,4-dimethylcyclohex-1-en-1-yl]methyl}piperazin-1-yl)-N-[(4-{[(1S,3R)-3-morpholin-4-ylcyclopentyl]amino}-3-nitrophenyl)sulfonyl]-2-(1H-pyrrolo[2,3-b]pyridin-5-yloxy)benzamide], for which the Ki was less than 0.01 nM.

With `CC1(C)CCC(CN2CCN(c3ccc(C(=O)NS(=O)(=O)c4ccc(N[C@@H]5CC[C@H](N6CCOCC6)C5)c([N+](=O)[O-])c4)c(Oc4cnc5[nH]ccc5c4)c3)CC2)=C(c2ccc(Cl)cc2)C1` [Example 112, 4-(4-{[2-(4-chlorophenyl)-4,4-dimethylcyclohex-1-en-1-yl]methyl}piperazin-1-yl)-N-[(4-{[(1R,3S)-3-morpholin-4-ylcyclopentyl]amino}-3-nitrophenyl)sulfonyl]-2-(1H-pyrrolo[2,3-b]pyridin-5-yloxy)benzamide], the Ki was less than 0.01 nM.

In the case of `CC1(C)CCC(CN2CCN(c3ccc(C(=O)NS(=O)(=O)c4ccc(NCC5CNCCO5)c([N+](=O)[O-])c4)c(Oc4cnc5[nH]ccc5c4)c3)CC2)=C(c2ccc(Cl)cc2)C1` (stereo not drawn) [Example 113, 4-(4-{[2-(4-chlorophenyl)-4,4-dimethylcyclohex-1-en-1-yl]methyl}piperazin-1-yl)-N-({4-[(morpholin-2-ylmethyl)amino]-3-nitrophenyl}sulfonyl)-2-(1H-pyrrolo[2,3-b]pyridin-5-yloxy)benzamide], the Ki was less than 0.01 nM.

As to `CC1(C)CCC(CN2CCN(c3ccc(C(=O)NS(=O)(=O)c4ccc(NCC5CCOC5)c([N+](=O)[O-])c4)c(Oc4cnc5[nH]ccc5c4)c3)CC2)=C(c2ccc(Cl)cc2)C1` (stereo not drawn) [Example 114, 4-(4-{[2-(4-chlorophenyl)-4,4-dimethylcyclohex-1-en-1-yl]methyl}piperazin-1-yl)-N-({3-nitro-4-[(tetrahydrofuran-3-ylmethyl)amino]phenyl}sulfonyl)-2-(1H-pyrrolo[2,3-b]pyridin-5-yloxy)benzamide], the Ki was less than 0.01 nM.

Take `CC1(C)CCC(CN2CCN(c3ccc(C(=O)NS(=O)(=O)c4ccc(NC5CN(C6CCOCC6)C5)c([N+](=O)[O-])c4)c(Oc4cnc5[nH]ccc5c4)c3)CC2)=C(c2ccc(Cl)cc2)C1` [Example 116, 4-(4-{[2-(4-chlorophenyl)-4,4-dimethylcyclohex-1-en-1-yl]methyl}piperazin-1-yl)-N-({3-nitro-4-[(1-tetrahydro-2H-pyran-4-ylazetidin-3-yl)amino]phenyl}sulfonyl)-2-(1H-pyrrolo[2,3-b]pyridin-5-yloxy)benzamide]: the Ki was less than 0.01 nM.

The record behind these values is patent US8580794B2 (AbbVie Inc., priority 2009, dated 2013).
